According to ChEMBL document CHEMBL5230088 (Eur J Med Chem, 2020):
pEC50, pIC50: −log10 of the molar value.

Key:
[1] = Cytotoxicity against African green monkey Vero E6 cells; type: toxicity, cell-based, Vero C1008; conditions: chlorocebus sabaeus
[2] = tested on: Middle East respiratory syndrome-related coronavirus; assay: Antiviral activity against MERS-CoV infected in HLE cells assessed as inhibition of viral replication; type: functional, organism-based
[3] = tested on: Middle East respiratory syndrome-related coronavirus; assay: Antiviral activity against MERS-CoV infected in HAE cells; type: functional, organism-based
SARS-CoV-2 = assay: Antiviral activity against SARS-CoV-2 infected in HAE cells assessed as reduction in viral infection; type: functional, organism-based; conditions: Severe acute respiratory syndrome coronavirus 2, HAE
Human coronavirus OC43 = assay: Antiviral activity against HCoV-OC43; type: functional, organism-based; conditions: Betacoronavirus 1
[4] = Cytotoxicity against human Huh-7 cells by celltiter-glo Assay; type: toxicity, cell-based
Murine hepatitis virus = assay: Antiviral activity against MHV infected in mouse Astrocytoma delayed brain tumor (DBT) cells; type: functional, organism-based; conditions: Murine coronavirus, Astrocytoma delayed brain tumor (DBT) cell
[5] = Cytotoxicity against mouse Astrocytoma delayed brain tumor (DBT) cells; type: toxicity, cell-based, Astrocytoma delayed brain tumor (DBT) cell
[6] = Antiviral activity against Porcine delta coronavirus assessed as reduction in viral replication; type: functional, Porcine deltacoronavirus
Ebolavirus [7] = assay: Antiviral activity against EBOV infected in human endothelial cells assessed as reduction in viral replication; type: functional, organism-based; conditions: Orthoebolavirus
Ebolavirus [8] = assay: Antiviral activity against EBOV infected in human Huh-7 cells assessed as reduction in viral replication; type: functional, organism-based; conditions: Orthoebolavirus
Ebolavirus [9] = assay: Antiviral activity against EBOV infected in human primary macrophage cells assessed as reduction in viral replication; type: functional, organism-based; conditions: Orthoebolavirus
Ebolavirus [10] = assay: Antiviral activity against EBOV infected in HFF assessed as reduction in viral replication; type: functional, organism-based; conditions: Orthoebolavirus
Ebolavirus [11] = assay: Antiviral activity against EBOV infected in human HeLa cells assessed as reduction in viral replication; type: functional, organism-based; conditions: Orthoebolavirus
Ebolavirus [12] = assay: Antiviral activity against EBOV infected in rhesus monkey model assessed as protection against viral infection at 10 mg/kg, iv administered once daily fir 12 days relative to control; type: functional; conditions: time 12 day
Nipah virus [13] = assay: Antiviral activity against NiV by virus titre reduction assay; type: functional, organism-based; conditions: Henipavirus nipahense
Nipah virus [14] = assay: Antiviral activity against NiV by antigen reduction assay; type: functional, organism-based; conditions: Henipavirus nipahense
Nipah virus [15] = assay: Antiviral activity against NiV by reporter assay; type: functional, organism-based; conditions: Henipavirus nipahense
Nipah virus [16] = assay: Antiviral activity against NiV by cytopathic effect assay; type: functional, organism-based; conditions: Henipavirus nipahense
[17] = tested on: Respiratory syncytial virus; assay: Antiviral activity against RSV; type: functional, organism-based; conditions: human respiratory syncytial virus
Junin virus = assay: Antiviral activity against Argentinian mammarenavirus assessed as inhibition of viral replication; type: functional, organism-based; conditions: Mammarenavirus juninense
Lassa virus = assay: Antiviral activity against Lassa virus assessed as inhibition of viral replication; type: functional, organism-based; conditions: Mammarenavirus lassaense
[18] = Prodrug conversion in rhesus monkey plasma assessed as NTP formation at 10 mg/kg; type: ADME, organism-based, Macaca mulatta; conditions: in vivo
[19] = Prodrug conversion in mouse lungs assessed as NTP formation at 10 mg/kg; type: ADME, organism-based, Lung; conditions: in vivo

For `CCC(CC)COC(=O)[C@H](C)N[P@](=O)(OC[C@H]1O[C@@](C#N)(c2ccc3c(N)ncnn23)[C@H](O)[C@@H]1O)Oc1ccccc1`, the CC50 [1] was over 100000 nM, the pIC50 [2] was 7.60 and the pEC50 [3] was 7.13. The pEC50 (SARS-CoV-2) was 7.16, the pEC50 (Human coronavirus OC43) was 6.82 and the CC50 [4] was over 10000 nM. The pEC50 (Murine hepatitis virus) was 7.52, the CC50 [5] was 39000 nM and the pEC50 [6] was 7.70. The pEC50 (Ebolavirus [7]) was 7.22, the pEC50 (Ebolavirus [8]) was 7.22 and the pEC50 (Ebolavirus [9]) was 7.22. It also gave a pEC50 (Ebolavirus [10]) of 7.22, a pEC50 (Ebolavirus [11]) of 7.22 and an Activity (Ebolavirus [12]) of 100%. The pEC50 (Nipah virus [13]) was 7.54, the pEC50 (Nipah virus [14]) was 7.54 and the pEC50 (Nipah virus [15]) was 7.54. For the same compound, the pEC50 (Nipah virus [16]) was 7.54, the pEC50 [17] was 7.72 and the EC90 [17] was 51 nM. For the same compound, the pEC50 (Junin virus) was 6.33, the EC90 (Junin virus) was 1330 nM and the pEC50 (Lassa virus) was 5.83. The EC90 (Lassa virus) was 2800 nM, the Drug metabolism [18] was 30 µmol/L and the Drug metabolism [19] was 2 µmol/L.
